Where two headings read alike, the source gives them in different places.

The results in this text go back to patent US11596639B2, “Substituted indole Mcl-1 inhibitors” (Vanderbilt University, priority 2016, dated 2023).

In one assay the target is Mcl-1 (Homo sapiens (Human), UniProt Q07820). As to the kind of experiment: Fluorescence polarization anisotropy (FPA) competition assay, FITC-Bak or FITC-Bim BH3 peptide. The assay is classed as binding. Conditions: read-out: Ki for Inhibition of Mcl-1 by FPA assay.
Chain of Mcl-1 (Q07820 172-327): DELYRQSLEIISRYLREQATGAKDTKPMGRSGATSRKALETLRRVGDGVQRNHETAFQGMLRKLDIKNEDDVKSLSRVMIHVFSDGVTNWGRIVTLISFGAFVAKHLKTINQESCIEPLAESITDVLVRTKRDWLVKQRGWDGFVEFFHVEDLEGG
In assay [1] the test system is H929 human cancer cell lines. Nature of the assay: Cellular viability / proliferation (Cell TiterGlo, 72 h). It counts as cell-based. An outline of the steps: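 H929 cells plated at 1,000/well in 10% FBS medium received a 2-fold serial compound dilution (top 50 μM, DMSO <1%) 24 h later. After 72 h, viability was read by CellTiter-Glo luminescence. IC50 came from a four-parameter fit.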

[2] abbreviates: Homo sapiens, NCI-H929, 72 h, read-out: GI50 on cellular proliferation of H929 human cancer cell lines, H929 cells, 72 h, Cell TiterGlo, 10% FBS.

Turning to `Cc1cc(OCCCc2c3n(c4c(-c5c(C)ncnc5C)c(Cl)ccc24)[C@H](C)CN(c2cn(C)c4cc(C(=O)O)ccc24)C3=O)cc(C)c1Cl` [Example 153, 3-[(4R)-7-chloro-10-[3-(4-chloro-3,5-dimethyl-phenoxy)propyl]-6-(4,6-dimethylpyrimidin-5-yl)-4-methyl-1-oxo-3,4-dihydropyrazino[1,2-a]indol-2-yl]-1-methyl-indole-6-carboxylic acid], the Ki on Mcl-1 was below 1 nM. In addition, the GI50 in assay [1] (setting [2]) was found to be 410 nM.
For `Cc1cc(OCCCc2c3n(c4c(-c5c(C)nn(C)c5C)c(Cl)ccc24)[C@H](C)CN(c2ccc4nc(C(=O)O)ccc4c2)C3=O)cc(C)c1Cl` [Example 102, (R)-6-(7-Chloro-10-(3-(4-chloro-3,5-dimethylphenoxy)propyl)-4-methyl-1-oxo-6-(1,3,5-trimethyl-1H-pyrazol-4-yl)-3,4-dihydropyrazino[1,2-a]indol-2(1H)-yl)quinoline-2-carboxylic acid], in that order: 1.5 nM and 4900 nM.
The corresponding values for `Cc1cccc(OCCCc2c3n(c4c(-c5c(C)nn(C)c5C)c(Cl)ccc24)[C@H](C)CN(c2cn(C)c4ccc(C(=O)O)cc24)C3=O)c1` [Example 405, (R)-3-(7-Chloro-4-methyl-1-oxo-10-(3-(m-tolyloxy)propyl)-6-(1,3,5-trimethyl-1H-pyrazol-4-yl)-3,4-dihydropyrazino[1,2-a]indol-2(1H)-yl)-1-methyl-1H-indole-5-carboxylic acid] are below 1 nM and 460 nM.
For `Cc1cc(OCCCc2c3n(c4c(-c5c(C)nn(C)c5C)c(Cl)ccc24)[C@H](C)CN(c2cn(C)c4ccc(S(=O)(=O)N5CCN(C)CC5)cc24)C3=O)cc(C)c1Cl` [Example 274, (R)-7-chloro-10-(3-(4-chloro-3,5-dimethylphenoxy)propyl)-4-methyl-2-(1-methyl-5-((4-methylpiperazin-1-yl)sulfonyl)-1H-indol-3-yl)-6-(1,3,5-trimethyl-1H-pyrazol-4-yl)-3,4-dihydropyrazino[1,2-a]indol-1(2H)-one], in that order: 4.8 nM and 2200 nM.
For `Cc1cc(OCCCc2c3n(c4c(-c5c(C)nn(C)c5C)c(Cl)ccc24)CCCN(c2cc(C(=O)O)c4cnn(C(C)C)c4c2)C3=O)cc(C)c1Cl` [Example 92, 6-[8-Chloro-11-[3-(4-chloro-3,5-dimethyl-phenoxy)propyl]-1-oxo-7-(1,3,5-trimethylpyrazol-4-yl)-4,5-dihydro-3H-[1,4]diazepino[1,2-a]indol-2-yl]-1-isopropyl-indazole-4-carboxylic acid], the Ki on Mcl-1 is below 1 nM. Also, in assay [1] (setting [2]), the GI50 was found to be 900 nM.
For `Cc1cc(OCCCc2c3n(c4c(-c5c(C)nn(C)c5C)c(Cl)ccc24)CCCN(c2cc(C(=O)O)c4c(Cl)cn(C)c4c2)C3=O)cc(C)c1Cl` [Example 3, 3-Chloro-6-(8-chloro-11-(3-(4-chloro-3,5-dimethylphenoxy)propyl)-1-oxo-7-(1,3,5-trimethyl-1H-pyrazol-4-yl)-4,5-dihydro-1H-[1,4]diazepino[1,2-a]indol-2(3H)-yl)-1-methyl-1H-indole-4-carboxylic acid], in that order: 1.1 nM and 6600 nM.
The corresponding values for `Cc1cc(OCCCc2c3n(c4c(-c5c(C)nn(C)c5C)c(Cl)ccc24)[C@H](C)CN(c2ccc4cc(C(=O)O)ccc4c2)C3=O)cc(C)c1Cl` [Example 185, (R)-6-(7-Chloro-10-(3-(4-chloro-3,5-dimethylphenoxy)propyl)-4-methyl-1-oxo-6-(1,3,5-trimethyl-1H-pyrazol-4-yl)-3,4-dihydropyrazino[1,2-a]indol-2(1H)-yl)-2-naphthoic acid] are 4.6 nM and 2900 nM.
For `Cc1cc(N2C[C@@H](C)n3c(c(CCCOc4cc(C)c(Cl)c(C)c4)c4ccc(Cl)c(-c5c(C)nc(CN6CCOCC6)nc5C)c43)C2=O)c2c(c1)cc(C(=O)O)n2C` [Example 416, (R)-7-(7-Chloro-10-(3-(4-chloro-3,5-dimethylphenoxy)propyl)-6-(4,6-dimethyl-2-(morpholinomethyl)pyrimidin-5-yl)-4-methyl-1-oxo-3,4-dihydropyrazino[1,2-a]indol-2(1H)-yl)-1,5-dimethyl-1H-indole-2-carboxylic acid], the inhibitory constant (Ki) on Mcl-1 is below 1 nM. Moreover, in assay [1] (setting [2]), the GI50 is below 200 nM.
For `Cc1cc(OCCCc2c3n(c4c(-c5c(C)nn(C)c5C)c(Cl)ccc24)CCCN(c2ccc4cnoc4c2)C3=O)cc(C)c1Cl` [Example 64, 2-(1,2-benzoxazol-6-yl)-8-chloro-11-[3-(4-chloro-3,5-dimethyl-phenoxy)propyl]-7-(1,3,5-trimethylpyrazol-4-yl)-4,5-dihydro-3H-[1,4]diazepino[1,2-a]indol-1-one], in that order: 4.8 nM and 5600 nM.
For `Cc1cc(OCCCc2c3n(c4c(-c5c(C)nn(C)c5C)c(Cl)ccc24)[C@H](C)CN(c2cccc4cc5n(c24)CCN(C)C5=O)C3=O)cc(C)c1Cl` [Example 226, (4R)-7-chloro-10-[3-(4-chloro-3,5-dimethyl-phenoxy)propyl]-4-methyl-2-(2-methyl-1-oxo-3,4-dihydropyrazino[1,2-a]indol-6-yl)-6-(1,3,5-trimethylpyrazol-4-yl)-3,4-dihydropyrazino[1,2-a]indol-1-one], in that order: 4.9 nM and 2600 nM.
With `Cc1cc(OCCCc2c3n(c4c(-c5c(C)nn(C)c5C)c(Cl)ccc24)[C@H](C)CN(c2ccc(OCc4ccccc4)c4c2cc(C(=O)O)n4C)C3=O)cc(C)c1Cl` [Example 327, (P, R)-7-(Benzyloxy)-4-(7-chloro-10-(3-(4-chloro-3,5-dimethylphenoxy)propyl)-4-methyl-1-oxo-6-(1,3,5-trimethyl-1H-pyrazol-4-yl)-3,4-dihydropyrazino[1,2-a]indol-2(1H)-yl)-1-methyl-1H-indole-2-carboxylic acid], the Ki on Mcl-1 amounted to 1.6 nM. For the same compound, in assay [1] (H929 cells, 72 h, Cell TiterGlo, 10% FBS, read-out: GI50 on cellular proliferation of H929 human cancer cell lines), the GI50 was determined as 3600 nM.
For the compound `Cc1nn(C)c(C)c1-c1c(Cl)ccc2c(CCCOc3ccc(F)cc3)c3n(c12)[C@H](C)CN(c1cn(C)c2ccc(C(=O)O)cc12)C3=O` [Example 410, (R)-3-(7-Chloro-10-(3-(4-fluorophenoxy)propyl)-4-methyl-1-oxo-6-(1,3,5-trimethyl-1H-pyrazol-4-yl)-3,4-dihydropyrazino[1,2-a]indol-2(1H)-yl)-1-methyl-1H-indole-5-carboxylic acid], the Ki on Mcl-1 came out at 1.4 nM. In addition, the GI50 in assay [1] (setting [2]) was 4000 nM.
`Cc1cc(OCCCc2c3n(c4c(-c5c(C)nn(C)c5C)c(Cl)ccc24)[C@H](C)CN(c2cccc4cc(-c5nnco5)n(C)c24)C3=O)cc(C)c1Cl` [Example 341, (R)-7-Chloro-10-(3-(4-chloro-3,5-dimethylphenoxy)propyl)-4-methyl-2-(1-methyl-2-(1,3,4-oxadiazol-2-yl)-1H-indol-7-yl)-6-(1,3,5-trimethyl-1H-pyrazol-4-yl)-3,4-dihydropyrazino[1,2-a]indol-1(2H)-one]: the Ki on Mcl-1 amounted to 4.2 nM. Further, the GI50 in assay [1] (setting [2]) worked out at 920 nM.
For `CC(=O)N1CCN(S(=O)(=O)c2ccc3c(c2)c(N2C[C@@H](C)n4c(c(CCCOc5cc(C)c(Cl)c(C)c5)c5ccc(Cl)c(-c6c(C)nn(C)c6C)c54)C2=O)cn3C)CC1` [Example 278, (R)-2-(5-((4-acetylpiperazin-1-yl)sulfonyl)-1-methyl-1H-indol-3-yl)-7-chloro-10-(3-(4-chloro-3,5-dimethylphenoxy)propyl)-4-methyl-6-(1,3,5-trimethyl-1H-pyrazol-4-yl)-3,4-dihydropyrazino[1,2-a]indol-1(2H)-one], in that order: 5.4 nM and 1500 nM.
Regarding `CCn1cc(C(=O)O)c2cccc(N3C[C@@H](C)n4c(c(CCCOc5cc(C)c(Cl)c(C)c5)c5ccc(Cl)c(-c6c(C)nn(C)c6C)c54)C3=O)c21` [Example 103, (R)-7-(7-Chloro-10-(3-(4-chloro-3,5-dimethylphenoxy)propyl)-4-methyl-1-oxo-6-(1,3,5-trimethyl-1H-pyrazol-4-yl)-3,4-dihydropyrazino[1,2-a]indol-2(1H)-yl)-1-ethyl-1H-indole-3-carboxylic acid], on Mcl-1, the Ki was below 1 nM. The GI50 in assay [1] (setting [2]) stood at 480 nM.
For `Cc1nc(-c2ccc3c(c2)c(N2C[C@@H](C)n4c(c(CCCOc5cc(C)c(Cl)c(C)c5)c5ccc(Cl)c(-c6c(C)nn(C)c6C)c54)C2=O)cn3C)no1` [Example 429, (R)-7-Chloro-10-(3-(4-chloro-3,5-dimethylphenoxy)propyl)-4-methyl-2-(1-methyl-5-(5-methyl-1,2,4-oxadiazol-3-yl)-1H-indol-3-yl)-6-(1,3,5-trimethyl-1H-pyrazol-4-yl)-3,4-dihydropyrazino[1,2-a]indol-1(2H)-one], in that order: 1.8 nM and 970 nM.
The corresponding values for `Cc1cc(OCCCc2c3n(c4c(-c5c(C)nn(C)c5C)c(Cl)ccc24)[C@H](C)CN(c2cn(C)c4ccc(-c5nnc(C6CC6)o5)cc24)C3=O)cc(C)c1Cl` [Example 423, (R)-7-Chloro-10-(3-(4-chloro-3,5-dimethylphenoxy)propyl)-2-(5-(5-cyclopropyl-1,3,4-oxadiazol-2-yl)-1-methyl-1H-indol-3-yl)-4-methyl-6-(1,3,5-trimethyl-1H-pyrazol-4-yl)-3,4-dihydropyrazino[1,2-a]indol-1(2H)-one] are 2.3 nM and 1700 nM.
The corresponding values for `Cc1nn(C)c(C)c1-c1c(Cl)ccc2c(CCCOc3ccccc3)c3n(c12)[C@H](C)CN(c1cn(C)c2ccc(C(=O)O)cc12)C3=O` [Example 408, (R)-3-(7-Chloro-4-methyl-1-oxo-10-(3-phenoxypropyl)-6-(1,3,5-trimethyl-1H-pyrazol-4-yl)-3,4-dihydropyrazino[1,2-a]indol-2(1H)-yl)-1-methyl-1H-indole-5-carboxylic acid] are 2.2 nM and 3200 nM.

A word on the Ki: it is a dissociation constant, usually derived from enzyme kinetics or from competition with a known ligand.
